From US10959993B2, “Combination of Bcl-2 inhibitor and MEK inhibitor for the treatment of cancer” (Genentech, Inc., priority 2015, dated 2021)
Each block holds one compound with its values, some of them ahead of it.

What was measured:
Bcl-2:BIM complex = biological target: T1, Bcl-2:BIM complex (Homo sapiens, UniProt P10415); assay: MSD ELISA of Bcl-2:BIM complex; assay type: cell-based; conditions: 1×IC50, 4 hrs, preliminary MSD data
T1 construct: endogenous in cells; host or cells: AML cell lines (OCI-AML3 is the only one named for this read-out)
T1 sequence (P10415 whole entry, one chain of several): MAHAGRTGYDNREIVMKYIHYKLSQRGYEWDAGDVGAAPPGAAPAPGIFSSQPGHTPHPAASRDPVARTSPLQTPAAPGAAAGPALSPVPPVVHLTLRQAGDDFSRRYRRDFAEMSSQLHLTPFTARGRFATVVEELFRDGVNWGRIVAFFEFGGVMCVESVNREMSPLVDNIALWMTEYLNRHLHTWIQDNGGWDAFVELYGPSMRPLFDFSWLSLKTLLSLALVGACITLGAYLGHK
Experimental: (§1) Representative proteins that are differentially expressed between combination-sensitive and combination-resistant cells were shown. (FIG. 3E) The Bcl-2:BIM complex was measured by the MSD ELISA assay in AML cell lines, untreated, treated with venetoclax alone, treated with cobimetinib alone, or treated with cobimetinib/venetoclax at 1×IC50 values for 4 hrs.
(§2) Ongoing analysis of pharmacodynamic markers include transcriptome assessment by RNA sequencing, functional proteomics by reverse phase protein array (RPPA), and quantification of Bcl-2:BIM and MCL-1:BIM complexes using the electrochemiluminescent ELISA assay (Meso Scale Discovery, MSD-ELISA). RPPA is a high-throughput technology that performs protein assays on thousands of samples simultaneously. This protein array platform measures levels of protein expression, as well as protein modifications such as phosphorylation.
Representative proteins that are differentially expressed in sensitive and resistant cell lines to the combination. (FIGS. 3A, 3B, 3C, and 3D). […] (FIG. 3E).

AML cell lines [1] = assay: Reverse phase protein array (RPPA) of sensitive v. resistant cell lines; assay type: cell-based; set-up: p16INK4a Mean. Res / p16INK4a Mean. Sens / p53 Mean. Res / p53 Mean. Sens / Bax Mean. Res / Bax Mean. Sens / Bim Mean. Res / Bim Mean. Sens / bRaf (T401) Mean. Res / bRaf (T401) Mean. Sens / Bcl-2 Mean. Res / Bcl-2 Mean. Sens: unit not given here
Experimental: as §1, §2

OCI-AML3/Luc/GFP cells = assay: OCI-AML3/Luc/GFP AML model in NSG mice; assay type: in vivo; conditions: compared to controls, more prominently in cobimetinib single agent and co-treated mice
Experimental: (§3) OCI-AML3/Luc/GFP cells (1×10^6 per mouse) were injected intravenously into NSG mice. (FIG. 5A) The luciferase intensity was quantified by serial bioluminescence imaging from 8 representative mice from 4 groups at week 5 post injection. (FIG. 5B) Overall survival rate in each group was estimated by the Kaplan-Meier method. 1×10^6 MOLM13-luci-GFP cells were injected into NSGS mice. Leukemia engraftment was confirmed on day 3 using Bioluminescence imaging (BLI). Mice were orally dosed daily with cobimetinib (10 mg/kg) or venetoclax (100 mg/kg) or in combination for 14 days. Luciferase intensity was shown on day 17 (FIG. 5C). Human CD45 engraftment in BM and spleen was determined by CyTOF. (FIG. 5D). The viable cell count was measured using Vi-Cell. (FIG. 5E). * *P: 0.01, ***P: 0.001.
(§4) We next investigated signaling patterns and Bcl-2 family protein expression in AML stem/progenitor cells using a 34-antibody panel and time-of-flight mass cytometry (CyTOF). CyTOF is a variation of flow cytometry in which antibodies are labeled with heavy metal ion tags rather than fluorochromes. Readout is by time-of-flight mass spectrometry. This allows for the combination of many more antibody specificities in single samples, without significant spillover between channels. […]

[2] = test system: AML stem/progenitor cells from primary AML; assay: Mass cytometry (CyTOF) of intracellular signaling proteins; assay type: cell-based
Experimental: Mononuclear cells from primary AML were treated with cobimetinib at 1.0 μM for 2 hrs followed by 10 minutes plus or minus stimulation with G-CSF (100 ng/ml). The SPADE tree was generated using markers including CD7, CD117, CD123, CD64, CD34, CD26, CD45, TIM3, CD33, CD19, CD56, CD2, CD15, CD41, CD38, CD166, CD3, CD90, CD11b, CD135 and HLA-DR. FIG. 4A depicts representative markers from among those markers tested. The grey-scale color represents the expression levels of each indicated protein. (FIG. 4A) Bcl-2 family members at baseline in the gated stem/progenitor AML cell populations (AML4295468: CD34+CD38+CD123+CD33+; AML 4366894: CD34+CD38-CD123+CD33+). (FIG. 4B) The median intensity of each protein in the gated cell populations mentioned above. (FIG. 4C) The intracellular signaling protein activation in the gated populations mentioned above.
We next investigated signaling patterns and Bcl-2 family protein expression in AML stem/progenitor cells using a 34-antibody panel and time-of-flight mass cytometry (CyTOF). CyTOF is a variation of flow cytometry in which antibodies are labeled with heavy metal ion tags rather than fluorochromes. Readout is by time-of-flight mass spectrometry. This allows for the combination of many more antibody specificities in single samples, without significant spillover between channels. […] (FIG. 4A). […] To test the efficacy of both compounds in vivo, we injected NSG mice with genetically engineered OCI-AML3/Luc/GFP cells. […] (FIGS. 5A and 5B). To further explore the anti-leukemia efficacy of both compounds, we injected NSGS mice with genetically engineered […] cells.

primary AML blasts = assay: Long-term culture of primary AML blasts: apoptosis and growth inhibition by flow cytometry; assay type: cell-based; conditions: AML 4366894
Experimental: (FIG. 2A) Primary AML peripheral blood mononuclear cells were cultured in serum-Free Expansion Medium (SFEM) supplemented with BIT 9500 Serum Substitute and cytokines including stem cell factor (100 ng/ml), Flt3 ligand (50 ng/ml), IL-3 (20 ng/ml) and G-CSF (20 ng/ml) as well as SRI (1 μM). After culture for 5 days, cells were stained with CD45-PE, Annexin-V-APC and DAPI−. The apoptotic leukemia blasts (CD45dimAnnexin-V+) were determined by flow cytometry. Results were expressed as percentage of specific apoptosis calculated by the formula: 100×(% apoptosis of treated cells−% apoptosis of control cells)/(100−% apoptosis of control cells), or % growth inhibition of control using the viable cell counts determined by Annexin-/DAPI. […] MNCs isolated from patients with AML (100,000) or healthy donors (50,000) were plated in methylcellulose medium (1 mL/well; Cat. 04435; [sequence] Technologies Inc., Vancouver, BC, Canada) in triplicate per condition. Colonies were scored after 2 weeks of culture.

AML cell lines [3] = assay: CellTiter-Glo in vitro cytotoxicity / growth inhibition, 72 hrs; assay type: cell-based; conditions: MOLM14, OCI-AML3, NB4 and THP1
Experimental: (FIG. 1A) The AML cell lines were treated with cobimetinib or venetoclax at 0.001, 0.01, 0.1 and 1.0 μM for 72 hrs. Calcusyn software was used to calculate the IC50 values and combination index (CI) based on the luminescent intensity that correlated with number of viable cells determined by the CellTiter-Glo assay.
The activity of 4-(4-{[2-(4-chlorophenyl)-4,4-dimethylcyclohex-1-en-1-yl]methyl}piperazin-1-yl)-N-({3-nitro-4-[(tetrahydro-2H-pyran-4-ylmethyl)amino]phenyl}sulfonyl)-2-(1H-pyrrolo[2,3-b]pyridin-5-yloxy)benzamide (ABT-199, or venetoclax) and [3,4-Difluoro-2-(2-fluoro-4-iodoanilino)phenyl]{3-hydroxy-3-[(2S)-piperidin-2-yl]azetidin-1-yl}methanone (cobimetinib) was examined in a panel of myeloid leukemia cell lines with diverse genetic alterations.

MOLM13-luci-GFP cells = assay: MOLM13-luci-GFP AML model in NSGS mice; assay type: in vivo; conditions: cobimetinib 10 mg/kg, venetoclax 100 mg/kg orally daily for 14 days, compared to controls, more prominently in venetoclax and co-treated mice
Experimental: as §3, §4

[4] = cell lines resistant to cobimetinib
[5] = cell lines sensitive to cobimetinib
[6] = cell lines resistant to venetoclax
[7] = cell lines sensitive to venetoclax

Bcl-2:BIM complex (Bcl-2:BIM complex; AML cell lines): but not cobimetinib disrupted | Bcl-2:BIM complex (Bcl-2:BIM complex; OCI-AML3 cells): accumulated
Compound: O=C(c1ccc(F)c(F)c1Nc1ccc(I)cc1F)N1CC(O)([C@@H]2CCCCN2)C1 [cobimetinib, [3,4-difluoro-2-(2-fluoro-4-iodoanilino)phenyl]{3-hydroxy-3-[(2S)-piperidin-2-yl]azetidin-1-yl}methanone]
Bax Mean. Res (AML cell lines [1]; [4]): 1.010 | Bim Mean. Res (AML cell lines [1]; [4]): 0.893 | ERK 1/2 (T202/Y204) Mean. Res (AML cell lines [1]; [4]): 1.073 | FLT3 (Y589/591) Mean. Res (AML cell lines [1]; [4]): 0.948 | PTEN (S380) Mean. Res (AML cell lines [1]; [4]): 1.049 | PTEN Mean. Res (AML cell lines [1]; [4]): 1.013 | RSK3 (T356/S360) Mean. Res (AML cell lines [1]; [4]): 0.859 | S6 (S235/236) Mean. Res (AML cell lines [1]; [4]): 0.748 | p16INK4a Mean. Res (AML cell lines [1]; [4]): 2.220 | p38MAP (T180/Y182) Mean. Res (AML cell lines [1]; [4]): 0.983 | p53 Mean. Res (AML cell lines [1]; [4]): 0.939 | Bax Mean. Sens (AML cell lines [1]; [5]): 1.307 | Bim Mean. Sens (AML cell lines [1]; [5]): 1.175 | ERK 1/2 (T202/Y204) Mean. Sens (AML cell lines [1]; [5]): 1.988 | FLT3 (Y589/591) Mean. Sens (AML cell lines [1]; [5]): 1.256 | PTEN (S380) Mean. Sens (AML cell lines [1]; [5]): 1.335 | PTEN Mean. Sens (AML cell lines [1]; [5]): 1.361 | RSK3 (T356/S360) Mean. Sens (AML cell lines [1]; [5]): 1.495 | S6 (S235/236) Mean. Sens (AML cell lines [1]; [5]): 1.174 | p16INK4a Mean. Sens (AML cell lines [1]; [5]): 1.184 | p38MAP (T180/Y182) Mean. Sens (AML cell lines [1]; [5]): 1.275 | p53 Mean. Sens (AML cell lines [1]; [5]): 1.373 | leukemia burden by bioluminescent imaging (BLI) (OCI-AML3/Luc/GFP cells): significantly reduced leukemia burden | G-CSF-evoked p-STAT3/5 ([2]; AML 4295468, 1.0 μM for 2 hrs): only slightly reduced | SCF-induced p-AKT ([2]; AML 4295468, 1.0 μM for 2 hrs): only slightly reduced | basal and G-CSF- or SCF-stimulated p-ERK ([2]; AML 4295468, 1.0 μM for 2 hrs): efficiently down-regulated | G-CSF-induced p-STAT3/5 ([2]; AML 4366894, 1.0 μM for 2 hrs): not significantly changed | p-ERK ([2]; AML 4366894, 1.0 μM for 2 hrs): also reduced | phosphorylation of STATS pathway ([2]; primary AML, 1.0 μM for 2 hrs): increased phosphorylation

Compound: CC1(C)CCC(CN2CCN(c3ccc(C(=O)NS(=O)(=O)c4ccc(NCC5CCOCC5)c([N+](=O)[O-])c4)c(Oc4cnc5[nH]ccc5c4)c3)CC2)=C(c2ccc(Cl)cc2)C1 [venetoclax, 4-(4-{[2-(4-chlorophenyl)-4,4-dimethylcyclohex-1-en-1-yl]methyl}piperazin-1-yl)-N-({3-nitro-4-[(tetrahydro-2H-pyran-4-ylmethyl)amino]phenyl}sulfonyl)-2-(1H-pyrrolo[2,3-b]pyridin-5-yloxy)benzamide]
sensitivity of primary AML sample (primary AML blasts): resistant | Bcl-2:BIM complex (Bcl-2:BIM complex; AML cell lines): disrupted by venetoclax in most cell lines | Bax Mean. Res (AML cell lines [1]; [6]): 0.958 | Bcl-2 Mean. Res (AML cell lines [1]; [6]): 0.817 | Bim Mean. Res (AML cell lines [1]; [6]): 1.143 | PTEN (S380) Mean. Res (AML cell lines [1]; [6]): 0.839 | PTEN Mean. Res (AML cell lines [1]; [6]): 0.704 | S6 (S240/244) Mean. Res (AML cell lines [1]; [6]): 1.918 | bRaf (T401) Mean. Res (AML cell lines [1]; [6]): 1.263 | p16INK4a Mean. Res (AML cell lines [1]; [6]): 1.989 | Bax Mean. Sens (AML cell lines [1]; [7]): 1.227 | Bcl-2 Mean. Sens (AML cell lines [1]; [7]): 1.081 | Bim Mean. Sens (AML cell lines [1]; [7]): 0.811 | PTEN (S380) Mean. Sens (AML cell lines [1]; [7]): 1.369 | PTEN Mean. Sens (AML cell lines [1]; [7]): 1.495 | S6 (S240/244) Mean. Sens (AML cell lines [1]; [7]): 1.571 | bRaf (T401) Mean. Sens (AML cell lines [1]; [7]): 0.927 | p16INK4a Mean. Sens (AML cell lines [1]; [7]): 1.593 | sensitivity of cell lines to single agent (AML cell lines [3]): resistant | leukemia burden by bioluminescent imaging (MOLM13-luci-GFP cells): significantly reduced leukemia burden
